Patent publication US10183062B2, “Treatment for cancer” (The University of Nottingham, priority 2013, dated 2019)
Where two headings read alike, the source gives them in different places.

Key:
[1] = system: Vibrio fischeri FRase I variant F124W; details: Swe et al., 2012, cited from earlier work
[2] = system: HinNTR, NTR from Haemophilus influenzae; details: Theys et al., 2006, cited from earlier work
HCT116 tumours [3] = assay: Mouse xenograft tumour growth delay with CB1954; assay type: in vivo, NMRI nu/nu mice (human colorectal HCT116 carcinoma)
Method: Human colorectal HCT116 carcinoma cells were grown in DMEM medium supplemented with 10% FBS, trypsinized and injected subcutaneously in 100 μl PBS/ . . . % matrigel at a concentration of 5.10^6 cells in the abdominal flank of adult NMRI nu/nu mice. As soon as tumours were palpable, tumour volumes were determined three times per week by measuring three orthogonal diameters using calipers. Volumes were calculated according to the formula V=A×B×C×/6. All experiments were conducted in accordance with local institutional guidelines of the University of Leuven, approved by the animal ethics committee and procedures were according to the guidelines defined by the UKCCCR (12). Treatment was initiated when tumours reached a volume of ˜250 mm^3. Five days post spore injection (5.10^7 cfu/100 μl), sham or prodrug treatment was started. CB1954 was prepared as described previously (13) and administered intraperitoneally (i.p.) at a concentration of 15 mg/kg for five consecutive days. At the end of the follow-up period, tumours and normal tissues were excised, ground and serially diluted to determine colonization levels (14). Tumour growth delay was determined for each individual tumour within the different groups as the time necessary to reach three times their initial volume at the start of the treatment. One-way ANOVA with a Tukey's posttest was used to determine statistical significance between the different growth curves.
Since strains E1 and N1 express stably-integrated NTR under the regulatory control of a strong promoter without inclusion of any antibiotic resistance gene, it was next determined whether administration of these clinically-applicable strains in combination with prodrug administration to tumour-bearing animals would result in anti-tumour efficacy. It was first evaluated whether inactivation of pyrE affected the tumour-colonizing capacity of systemically administered spores. Mice bearing subcutaneously transplanted HCT116 tumours were injected and tumour colonization tested seven days later. […] On average 10^9 cfu were found per gram of tumour tissue. Colonization was also confirmed by gram staining. In tumours, C. sporogenes vegetative cells are visible as purple, gram-positive rods (FIG. 3 C). As expected, C. sporogenes vegetative cells could not be detected in any of the normal tissues investigated. […] Spores were collected, quantified and intravenously administered at a concentration of 5.10×10^7 per animal when tumours reached a volume of ˜250 mm^3, followed five days later by sham or prodrug administration. […] In all cases, strain specific signals could be detected thereby confirming stability of the integrated construct.

[4] = system: BliNTR, NTR from Bacillus licheniformis; details: Emptage et al., 2009, cited from earlier work
[5] = system: E. coli NfsA nitroreductase; details: Vass et al., 2009, cited from earlier work; for Km: read-out: Km^CB1954
[6] = cited from earlier work
HCT116 tumours [7] = assay: Mouse xenograft tumour growth delay (CDEPT); assay type: in vivo, NMRI nu/nu mice; details: prodrug alone, 15 mg/kg i.p., 5 consecutive days
Method: Human colorectal HCT116 carcinoma cells were grown in DMEM medium supplemented with 10% FBS, trypsinized and injected subcutaneously in 100 μl PBS/ . . . % matrigel at a concentration of 5.10^6 cells in the abdominal flank of adult NMRI nu/nu mice. As soon as tumours were palpable, tumour volumes were determined three times per week by measuring three orthogonal diameters using calipers. Volumes were calculated according to the formula V=A×B×C×/6. All experiments were conducted in accordance with local institutional guidelines of the University of Leuven, approved by the animal ethics committee and procedures were according to the guidelines defined by the UKCCCR (12). […] Tumour growth delay was determined for each individual tumour within the different groups as the time necessary to reach three times their initial volume at the start of the treatment. […]
Since strains E1 and N1 express stably-integrated NTR under the regulatory control of a strong promoter without inclusion of any antibiotic resistance gene, it was next determined whether administration of these clinically-applicable strains in combination with prodrug administration to tumour-bearing animals would result in anti-tumour efficacy. It was first evaluated whether inactivation of pyrE affected the tumour-colonizing capacity of systemically administered spores. […]

[8] = system: E. coli NfnB nitroreductase, wild type; details: Knox et al., 1992, cited from earlier work

NC(=O)c1cc(N2CC2)c([N+](=O)[O-])cc1[N+](=O)[O-] [CB1954, 5-(aziridin-1-yl)-2,4-dinitrobenzamide]
Kcat ([1]; CB1954): 26.6 S^−1
Km ([1]; read-out: Km^CB1954): 259 µM
Kcat ([2]; CB1954): 56.2 S^−1
Km ([2]; read-out: Km^CB1954): 690 µM
tumours completely disappeared, E1/CB1954 group (HCT116 tumours [3]; CB1954 15 mg/kg i.p. x 5 days + E1 (E. coli NfnB) spores): two out of 16
tumours completely disappeared, N1/CB1954 group (HCT116 tumours [3]; CB1954 15 mg/kg i.p. x 5 days + N1 (NmeNTR) spores): four out of 16
tumour growth delay, pyrE mutant spores alone or with CB1954 (HCT116 tumours [3]; CB1954 15 mg/kg i.p. x 5 days, pyrE mutant spores): small growth delay
tumour growth delay, E1 or N1 with CB1954 (HCT116 tumours [3]; CB1954 15 mg/kg i.p. x 5 days, E1 (NfnB) or N1 (NmeNTR) C. sporogenes spores, most pronounced for N1 (p<0.001, one way ANOVA)): significant growth delay
Kcat ([4]; CB1954): 6.4 S^−1
Km ([4]; read-out: Km^CB1954): 30 µM
Kcat ([5]; CB1954, cofactor NADH): 2.60 (NADH) S^−1
Kcat ([5]; CB1954, cofactor NADPH): 20.9 (NADPH) S^−1
Km ([5]; cofactor NADH): 18 µM
Km ([5]; cofactor NADPH): 140 µM
maximum concentration which can be safely achieved in patient serum ([6]; in vivo): 6.3 µM
peak concentrations in patient sera ([6]; safe doses): 1 to 10 µM
tumour growth delay (HCT116 tumours [7]): did not result in any effect
Kcat ([8]; CB1954): 6 S^−1
Km ([8]; read-out: Km^CB1954): 862 µM
